Assays:
Type in all cases: cell-based, mouse
MIN6 [1] = test: Proportion of dead cells by propidium iodide, MIN6 at 4 DIV in culture
Procedure: (§1) A mouse pancreatic β-cell tumorigenic (insulinoma) cell line MIN6 (Miyazaki J. et al., Endocrinology 127:126-132, 1990) was used to perform the following experiment. Here, all experiments which include an experiment where the above-described compound B (hereinafter called LGG) is administered and an experiment where the above-described compound A (hereinafter called DGG) is administered and in which about 1,000 MIN6 cells were placed in 96 wells were carried out by taking care to avoid external disturbances as much as possible.
MIN6 cells derived from mouse pancreas are a heterogeneous cell population (Yamato, E. et al., PLOS One 8: e61211, 2013). Up to about 4 to 5 DIV after the start of culture, normal cells, that is, insulin-producing β-cells of pancreatic islets of Langerhans accounted for the majority. […]
Specifically, LGG and DGG were administered to MIN6 at 0 to 1,000 μm at 4 DIV in culture, and after the elapse of 90 minutes, the proportion of the number of dead cells evaluated using a dead cell marker propidium iodide (PI) was measured as a function of their concentrations. […] However, the vertical axis is a value (%) normalized by the fluorescence intensity of the total number of cells assuming that the number of dead cells at a concentration of 1,000 μm is the total number of cells in each well. […]

MIN6 [2] = test: Proportion of dead cells, MIN6 at long DIV (18 to 19 DIV) in culture; settings: MIN6 at 19 DIV for LGG, 18 DIV for DGG; administered for 10 minutes; FIG. 6
Procedure: as §1
Specifically, LGG and DGG were administered to MIN6 at 0 to 1,000 μm at 4 DIV in culture, and after the elapse of 90 minutes, the proportion of the number of dead cells evaluated using a dead cell marker propidium iodide (PI) was measured as a function of their concentrations. […] However, the vertical axis is a value (%) normalized by the fluorescence intensity of the total number of cells assuming that the number of dead cells at a concentration of 1,000 μm is the total number of cells in each well. The broken line is an eye guide.
Furthermore, the same experiment as that of FIG. 2 was carried out for MIN6 at long DIV in culture. However, in either case, observations were carried out after DGG or LGG was administered for 10 minutes.

MIN6 [3] = test: Optical microscope observation of cell conditions, MIN6 at 5 DIV, with or without PHT
Procedure: as §1
Here, a further experiment was carried out to verify whether the LGG-induced cell death clearly shown in FIG. 2 was indeed caused by the intracellular uptake of LGG. Specifically, whether the cell death is inhibited was examined by administering LGG in the presence of phloretin (hereinafter called PHT).
PHT functions as an inhibitor on various membrane transport proteins such as water channel proteins or glucose transporter proteins (Ono K. et al., Cancers 12:850, 2020). […] That is, it is estimated that, when an L-glucose derivative is applied to MIN6 cells in the presence of PHT, incorporation of LGG into “cells into which the L-glucose derivative can be incorporate” which are partially present in a heterogeneous cell population is inhibited by the effect of inhibiting a non-transporter type transport mechanism by PHT. […]

MIN6 [4] = test: Calcein fluorescence intensity (activity of living cells), MIN6 at 5 DIV, with or without PHT; settings: FIG. 5
Procedure: as §1
Furthermore, the effect of LGG on cells was quantitatively analyzed in the presence or absence of PHT. Specifically, similarly to the cases of FIG. 3 described above, the fluorescence intensity of calcein, which is a fluorescent marker representing activities of living cells, was evaluated for the case (A) where LGG was not administered to MIN6 (at 5 DIV) (control experiment), the case (B) where 100 μm LGG was administered thereto for 10 minutes (LGG), and the case (C) where 100 μm LGG was administered thereto for 10 minutes after 150 μm PHT was administered in advance. In FIG. 5, the error bars indicate standard errors SE, and the numerical values in parentheses indicate the number of ROIs analyzed. […]

CC[P+](CC)(CC)[Au-][S]C1OC(CO)C(O)C(O)C1O [LGG, (1-thio-β-L-glucopyranoside) (S-triethylphosphine) gold (I)] was tested, and the “safety against normal cells relative to DGG” value (MIN6 [1]; MIN6 at 4 DIV (mostly normal β-cells), from 50% effective doses) was “approximately 10 times”, the “concentration above which cell death evaluated using PI becomes detectable” value (MIN6 [1]; MIN6 at 4 DIV, 90 minutes after administration, interpolation of FIG. 2) was 10 μm and the “concentration dependence of the proportion of the number of dead cells” value (MIN6 [2]) was “almost matches the DGG concentration dependence”. For the same molecule, the “cell conditions under optical microscope” value (MIN6 [3]; 100 μm LGG for 10 minutes after 150 μm PHT in advance, FIG. 3C, 4f-4i) was “cells indicating deterioration of the cell conditions are hardly recognized”, the “cell conditions under optical microscope” value (MIN6 [3]; 100 μm LGG for 10 minutes, no PHT, FIG. 3B, 4e) was “a part of cytoplasm in some cells protrudes outside the cells” and the “fluorescence intensity of calcein (cell activity): decrease due to LGG in presence of PHT” value (MIN6 [4]; 100 μm LGG for 10 minutes after 150 μm PHT in advance) was “significantly inhibited by PHT”. For the same molecule, the “fluorescence intensity of calcein (cell activity) versus control” value (MIN6 [4]; 100 μm LGG for 10 minutes, no PHT) was “significantly reduced activities of MIN6 cells”.

— patent publication US12516082B2, “Metal-carbohydrate complex” (ARCZONE K.K., priority 2020, dated 2026)
